Reference: patent US20110105408A1, “THERAPEUTIC PEPTIDES” (INTER-K PTY LIMITED, priority 2008, published 2011)
“Also recorded” adds a separate entry of the source. No end group written: not given here.

What was measured:
[1] = system: phospho-ERK in HT29 cells; assay: Phospho-ERK ELISA (FACE ERK1/2 kit) in HT29 cells; assay type: cell-based, human
Method: (§1) HT29 cells were harvested using 0.5% trypsin EDTA (Invitrogen) and 5000 cells were resuspended into 200 μL, and added to each well of a clear NUNC tissue culture treated 96 well plate (NUNC). Cells were seeded in DMEM media (Invitrogen) supplemented with 10% v/v foetal calf serum (FCS, Invitrogen), 1% L-Glutamine (Invitrogen) and 2% 1M HEPES buffer solution (Invitrogen). Cells were then incubated overnight at 37° C. The following day, the growth medium was replaced with 100 μL of serum-free DMEM supplemented with 1% L-glutamine and 2% 1M HEPES buffer solution, and incubated for a further 24 hours at 37° C. Dendrimers were added to test wells in serum free medium to provide final concentrations of the dendrimers ranging from 0.1-20 μLA. The total volume of each well was 200 uL, and cells were incubated at 37° C. for times ranging from 5 minutes to 4 hours. In those studies in which cells were subjected to stimulation by serum, 22 μL FCS (10% v/v final concentration) was added to wells for the final ten minutes of the culture period at 37° C. Serum-free media (SFM) only (22 μL) was added to non-serum stimulated cells.
Phospho-ERK levels were determined using the FACE ERK1/2 ELISA kit according to the manufacturer's instructions (Active Motif, kit obtained from Australian Biosearch, WA, Australia). Briefly, media was replaced and cells fixed with 4% formaldehyde in PBS, and after a 1 hour with antibody blocking buffer (supplied), the primary phospho-ERK or total-ERK antibody was added and incubated overnight at 4° C. Antibody dilution buffer only was added to control test wells containing no primary antibody. The next day, HRP-conjugated secondary antibody was added for one hour before plates were developed and the absorbance measured at 450 nm using a Labsystems Multiskan EX microplate reader (Labsystems, Thermo Labsystems, UK).
The effectiveness of the peptide dendrimer IK248 described in Example 2 in inhibiting growth factor mediated activation of ERK in HT29 cancer cells (i.e., (FCS stimulated) compared to various agents comprising the polypeptide RSKAKNPLYR (SEQ ID No. 6) coupled to different peptide facilitator moieties for facilitating passage of the polypeptide across the plasma cell membrane into the cytosol of the cells was evaluated. Phospho-ERK levels in the cells following treatment with 5 μM IK248 (Dend 8) for 1 hour or polypeptide-facilitator moiety agents (each at 5 μM for the same duration) were measured essentially as described in Example 1.3. The facilitator moieties utilised were the signal peptide fragment AAVALLPAVLLALLA (SEQ ID No. 16), the TAT-G peptide GRKKRRQRRRPPQG (SEQ ID No. 17), a modified pentratin sequence Tr-Pen RRQKWKKG (SEQ ID No. 18), and the penetratin peptide RQIKIWFQNRRMKWKKCS—SC (SEQ ID No. 19) wherein S—S indicates a disulphide bridge between the adjacent cysteine residues.
The peptide RSKAKNPLYR (SEQ ID. No. 6) or peptide dendrimers of the type illustrated in FIG. 3 comprising lysine branching units presenting either 8 (IK248) or 10 (IK248B) monomer units of the peptide RSKAKNPLYR (SEQ ID No. 6) were utilised in this study. Phospho-ERK levels were evaluated by ELISA utilising an Active Motif FACE ERK1/2 ELISA kit (Australian Biosearch, WA, Australia) as described in Example 1.3.

[2] = system: MKN45 gastric carcinoma cells; assay: Cell proliferation (MTT) assay, MKN45 cells; assay type: cell-based; conditions: 48 hours incubation
Method: (§2) Single cell suspensions of viable trypsinised cells were seeded into 96-well tissue culture plates at a density of 2×10^3 cells per well in a volume of 100 μl of a suitable culture media with foetal calf serum (FCS) (e.g., Dulbecco's Modified Eagles Medium (DMEM), with 10% v/v FCS, glutamine, Hepes, and antibiotics). A set of triplicate wells was prepared for each concentration of the peptide dendrimer being tested. Additional sample wells containing untreated cells or media alone were set up in each treatment plate and processed in parallel as reference controls. A zero-time plate of untreated cells and media-alone wells was simultaneously prepared and an MTT assay carried out on this plate at the time of test peptide dendrimer addition to treatment plates. All plates were cultured for 24 hours before addition of the test dendrimer. […] After solubilisation of the salt crystals, a coloured product is produced the measurement of which allows quantitation of the proliferative activity of the cultured cells.
(§3) Appropriate concentrations of the test dendrimer were prepared by dilution of freshly prepared sterile 1 mM stock solutions into cell culture media to give a final well volume of 200 μl containing 10% v/v FCS. […] Plates were gently vortexed to complete solubilisation of crystalline material and absorbance was read at 540-550 nm using a microplate reader. […]

[3] = system: total ERK in HT29 cells; assay: Total-ERK ELISA in HT29 cells; assay type: cell-based, human; conditions: HT29 cells treated with the dendrimer
Method: as §1, with “In those studies in which cells were subjected to stimulation by serum, 22 μL FCS (10% v/v final concentration) was added to wells for the final ten minutes of the culture period at 37° C. Serum-free media (SFM) only (22 μL) was added to non-serum stimulated cells.” left out
Phospho-ERK levels were determined using the FACE ERK1/2 ELISA kit according to the manufacturer's instructions (Active Motif, kit obtained from Australian Biosearch, WA, Australia). […] The next day, HRP-conjugated secondary antibody was added for one hour before plates were developed and the absorbance measured at 450 nm using a Labsystems Multiskan EX microplate reader (Labsystems, Thermo Labsystems, UK).

[4] = system: MCF-7 breast cancer cells; assay: Cell proliferation (MTT) assay, MCF-7 cells; assay type: cell-based; conditions: 48 hours incubation
Method: as §2, §3

[5] = system: DU145 prostate cancer cells; assay: Cell proliferation (MTT) assay, DU145 cells; assay type: cell-based; conditions: 48 hours incubation
Method: as §2, §3

[6] = system: HT29 colon cancer cells; assay: Cell proliferation (MTT) assay, HT29 cells; assay type: cell-based, human; conditions: 24 hour incubation period
[7] = system: HT29 colon cancer cells; assay: Cell proliferation (MTT) assay, HT29 cells; assay type: cell-based, human; conditions: for inhibition of proliferation of HT29 cells (MTT): 48 hours culture with dendrimer
Method: Single cell suspensions of viable trypsinised cells were seeded into 96-well tissue culture plates at a density of 2×10^3 cells per well in a volume of 100 μl of a suitable culture media with foetal calf serum (FCS) (e.g., Dulbecco's Modified Eagles Medium (DMEM), with 10% v/v FCS, glutamine, Hepes, and antibiotics). A set of triplicate wells was prepared for each concentration of the peptide dendrimer being tested. Additional sample wells containing untreated cells or media alone were set up in each treatment plate and processed in parallel as reference controls. A zero-time plate of untreated cells and media-alone wells was simultaneously prepared and an MTT assay carried out on this plate at the time of test peptide dendrimer addition to treatment plates. All plates were cultured for 24 hours before addition of the test dendrimer. To prepare the MTT solution 100 mg of MTT (3-(4,5-dimethylthiazolyl-2)-2,5-diphenyltetrazolium bromide) (Cat #. M-128, Sigma, St Louis Mo.), is mixed with 20 ml of PBS at pH 7.4. The resulting solution is filter sterilized (0.2 μM syringe filter) and stored at 4° C. protected from light until use. MTT substrate is cleaved in growing cells to yield a water insoluble salt. After solubilisation of the salt crystals, a coloured product is produced the measurement of which allows quantitation of the proliferative activity of the cultured cells.
Appropriate concentrations of the test dendrimer were prepared by dilution of freshly prepared sterile 1 mM stock solutions into cell culture media to give a final well volume of 200 μl containing 10% v/v FCS. The zero-plate was processed by addition of MTT at this time. Cell culture was continued for a further 24 or 48 hours before addition of 20 μl of MTT in PBS (5 mg/ml, 0.2 um filter sterilised). The MTT cell proliferation assay measures cell proliferation rate and, in instances where cell viability is compromised, the assay indicates a comparative reduction in cell viability. After a 3 hour incubation in the presence of MTT (5% CO2 in air at 37° C.), plates were centifuged at 450 g for 5 minutes, supernatant removed by gentle suction and precipitated tetrazolium salt resuspended into 150 μl DMSO:glycine (0.1 M glycine, 0.1 M NaCl pH 10.5) (6:1 v/v) solution. Plates were gently vortexed to complete solubilisation of crystalline material and absorbance was read at 540-550 nm using a microplate reader. Sample data were processed to determine the comparative growth of treated samples relative to untreated controls.
HT29 cells were cultured for 48 hours in the presence of selected dendrimers and proliferation of the cells was assessed by MTT assay essentially as described in Example 1.2. The results were calculated as percentage proliferation of control cells (not treated with dendrimer).

## CC(C)C[C@H](NC(=O)[C@@H]1CCCN1C(=O)[C@H](CC(N)=O)NC(=O)[C@H](CCCCN)NC(=O)[C@H](C)NC(=O)[C@H](CCCCN)NC(=O)[C@H](CO)NC(=O)[C@@H](N)CCCNC(=N)N)C(=O)N[C@@H](Cc1ccc(O)cc1)C(=O)N[C@@H](CCCNC(=N)N)C(=O)NCCCC[C@H](NC(=O)[C@H](CCCNC(=N)N)NC(=O)[C@H](Cc1ccc(O)cc1)NC(=O)[C@H](CC(C)C)NC(=O)[C@@H]1CCCN1C(=O)[C@H](CC(N)=O)NC(=O)[C@H](CCCCN)NC(=O)[C@H](C)NC(=O)[C@H](CCCCN)NC(=O)[C@H](CO)NC(=O)[C@@H](N)CCCNC(=N)N)C(=O)NCCCC[C@H](NC(=O)[C@H](CCCCNC(=O)[C@H](CCCNC(=N)N)NC(=O)[C@H](Cc1ccc(O)cc1)NC(=O)[C@H](CC(C)C)NC(=O)[C@@H]1CCCN1C(=O)[C@H](CC(N)=O)NC(=O)[C@H](CCCCN)NC(=O)[C@H](C)NC(=O)[C@H](CCCCN)NC(=O)[C@H](CO)NC(=O)[C@@H](N)CCCNC(=N)N)NC(=O)[C@H](CCCNC(=N)N)NC(=O)[C@H](Cc1ccc(O)cc1)NC(=O)[C@H](CC(C)C)NC(=O)[C@@H]1CCCN1C(=O)[C@H](CC(N)=O)NC(=O)[C@H](CCCCN)NC(=O)[C@H](C)NC(=O)[C@H](CCCCN)NC(=O)[C@H](CO)NC(=O)[C@@H](N)CCCNC(=N)N)C(=O)NCCCC[C@H](NC(=O)[C@H](CCCCNC(=O)[C@H](CCCCNC(=O)[C@H](CCCNC(=N)N)NC(=O)[C@H](Cc1ccc(O)cc1)NC(=O)[C@H](CC(C)C)NC(=O)[C@@H]1CCCN1C(=O)[C@H](CC(N)=O)NC(=O)[C@H](CCCCN)NC(=O)[C@H](C)NC(=O)[C@H](CCCCN)NC(=O)[C@H](CO)NC(=O)[C@@H](N)CCCNC(=N)N)NC(=O)[C@H](CCCNC(=N)N)NC(=O)[C@H](Cc1ccc(O)cc1)NC(=O)[C@H](CC(C)C)NC(=O)[C@@H]1CCCN1C(=O)[C@H](CC(N)=O)NC(=O)[C@H](CCCCN)NC(=O)[C@H](C)NC(=O)[C@H](CCCCN)NC(=O)[C@H](CO)NC(=O)[C@@H](N)CCCNC(=N)N)NC(=O)[C@H](CCCCNC(=O)[C@H](CCCNC(=N)N)NC(=O)[C@H](Cc1ccc(O)cc1)NC(=O)[C@H](CC(C)C)NC(=O)[C@@H]1CCCN1C(=O)[C@H](CC(N)=O)NC(=O)[C@H](CCCCN)NC(=O)[C@H](C)NC(=O)[C@H](CCCCN)NC(=O)[C@H](CO)NC(=O)[C@@H](N)CCCNC(=N)N)NC(=O)[C@H](CCCNC(=N)N)NC(=O)[C@H](Cc1ccc(O)cc1)NC(=O)[C@H](CC(C)C)NC(=O)[C@@H]1CCCN1C(=O)[C@H](CC(N)=O)NC(=O)[C@H](CCCCN)NC(=O)[C@H](C)NC(=O)[C@H](CCCCN)NC(=O)[C@H](CO)NC(=O)[C@@H](N)CCCNC(=N)N)C(=O)NCCC(N)=O [IK248]
[1]; 5 μM, 1 hour, FCS stimulated HT29 cells
  greater inhibition of activated phospho-ERK than the closest test agent (TAT-G RSKAKNPLYR): at least 30%
[1]; 5 μM, 4 hours, FCS stimulated HT29 cells (data not shown)
  inhibition of activated phospho-ERK: approx. 95%
[1]; HI FCS stimulated, 20 μM, 1 hour incubation
  phospho-ERK level in FCS stimulated cells: lower than in non-FCS stimulated cells treated with the dendrimer, but remained higher than phospho-ERK basal levels in control cells not treated with the dendrimer
[1]; not FCS stimulated, 1 μM-10 μM, 4 hr incubation
  basal phospho-ERK level relative to control cells: incease relative to control cells
[1]; not FCS stimulated, 5 μM, 5, 10 and 30 minutes, and 1 hour
  basal phospho-ERK level compared to control cells, time course: markedly increased phospho-ERK levels at all time points evaluated
[2]
  inhibition of growth/proliferation of MKN45 gastric carcinoma cells: inhibited growth/proliferation
[3]
  total ERK levels: remained essentially unaffected
[4]
  inhibition of growth/proliferation of MCF-7 breast cancer cells: inhibited growth/proliferation
[5]
  inhibition of growth/proliferation of DU145 prostate cancer cells: inhibited growth/proliferation
[6]
  inhibition of proliferation of HT29 colon cancer cells (MTT): inhibit proliferation of HT29 colon cancer cells; also recorded: substantially more effective at inhibiting cell growth/proliferation than the peptide dendrimer comprising 4 monomers of the polypeptide

## Dend8 β3: peptide dendrimer presenting 8 monomer units of the β3 based peptide RARAKNPLYK (SEQ ID No. 7) (also: dendrimer of 8 peptide copies)
[7]
  inhibition of proliferation of HT29 cells (MTT): inhibited proliferation of the HT29 cancer cells

## Dend8 β5: peptide dendrimer presenting 8 monomer units of the β5 based peptide RSRARNPLYR (SEQ ID No. 8) (also: dendrimer of 8 peptide copies)
[7]
  inhibition of proliferation of HT29 cells (MTT): inhibited proliferation of the HT29 cancer cells; also recorded: more effective

## Dend 4: peptide dendrimer comprising 4 monomer units of the polypeptide RSKAKNPLYR (SEQ ID No. 6) (also: dendrimer of 4 peptide copies)
[6]
  inhibition of proliferation of HT29 colon cancer cells (MTT): inhibit proliferation of HT29 colon cancer cells

## Dend 9 10(4): dendrimer presenting 9 monomer units of the peptide RSKAKNPLYR (SEQ ID No. 6) (also: dendrimer of 9 peptide copies)
[7]
  inhibition of proliferation of HT29 cells (MTT): Dend 12 was more effective than Dend 9

## dendrimer presenting 12 monomer units of the peptide RSKAKNPLYR (SEQ ID No. 6) (also: dendrimer of 12 peptide copies) [Dend 12 10(4)]
[7]
  inhibition of proliferation of HT29 cells (MTT): more effective than Dend 9
[7]; 48 hours, MTT
  IC50: 1000 nM
[7]; HT29 cells, 48 hours, MTT
  dendrimer concentration required for total kill: 10 µM
